{"source": "patent US10934310B2", "about": "“Inhibitors of Bruton's tyrosine kinase and method of their use” (JANSSEN PHARMACEUTICA NV, priority 2015, dated 2021)"}
{"biological_target": "unphosphorylated-BTK kinase domain (UP-BTK), GST-tagged human BTK (389-659aa) (Homo sapiens (Human), UniProt Q06187)", "sequence (Q06187 389-659)": "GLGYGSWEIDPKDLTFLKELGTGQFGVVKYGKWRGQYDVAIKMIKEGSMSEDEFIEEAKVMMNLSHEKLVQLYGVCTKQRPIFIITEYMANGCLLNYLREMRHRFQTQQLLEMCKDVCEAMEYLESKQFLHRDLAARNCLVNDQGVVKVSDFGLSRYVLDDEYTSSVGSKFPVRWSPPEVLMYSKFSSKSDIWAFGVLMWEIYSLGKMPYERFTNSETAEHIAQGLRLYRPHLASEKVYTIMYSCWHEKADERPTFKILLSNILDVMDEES", "experiment": "BTK Kinase Lanthascreen Binding Assay", "conditions": "compound, 50 nM Tracer 236, 2 nM anti-GST antibody, 60 minutes; pIC50 = negative log of the IC50 in molar", "description": "BTK Kinase Lanthascreen Binding Assay:\nA BTK kinase lanthascreen binding assay monitors compound binding to unphosphorylated-BTK kinase domain (UP-BTK), by competing with a fluorescent labeled tracer. […] Data were analyzed using Xlfit™ version 5.3 from ID Business Solutions (Guildford), Microsoft Excel add-in. pIC50 refers to the negative log of the IC50 in molar."}
{"smiles": "C=CC(=O)N[C@@H]1CCC[C@@H](NC(=O)c2sc3nccc4c3c2NC(=O)N4c2ccnc(-c3ccccc3)c2)C1", "note": "[Example 232, N-((1R,3R)-3-Acrylamidocyclohexyl)-4-oxo-5-(2-phenylpyridin-4-yl)-4,5-dihydro-3H-1-thia-3,5,8-triazaacenaphthylene-2-carboxamide]", "BTK_I_binding pIC50": 7.05}
{"smiles": "C=CC(=O)N[C@H]1CCC[C@H]1NC(=O)c1sc2nccc3c2c1NC(=O)N3c1ccc(OC2CCOCC2)cc1", "note": "[Example 234, N-((1R,2S)-2-Acrylamidocyclopentyl)-4-oxo-5-(4-((tetrahydro-2H-pyran-4-yl)oxy)phenyl)-4,5-dihydro-3H-1-thia-3,5,8-triazaacenaphthylene-2-carboxamide]", "BTK_I_binding pIC50": 6.76}
{"smiles": "Cc1cc(Oc2ccccc2)ccc1N1C(=O)Nc2c(C(=O)N[C@@H]3CC[C@@H](NC(=O)CN)C3)sc3nccc1c23", "note": "[Example 235, N-((1R,3R)-3-(2-Aminoacetamido)cyclopentyl)-5-(2-methyl-4-phenoxyphenyl)-4-oxo-4,5-dihydro-3H-1-thia-3,5,8-triazaacenaphthylene-2-carboxamide]", "BTK_I_binding pIC50": 7.44}
{"smiles": "Cc1cc(Oc2ccccc2)ccc1N1C(=O)Nc2c(C(=O)N[C@@H]3CC[C@@H](N)C3)sc3nccc1c23", "note": "[Example 236, N-((1R,3R)-3-Aminocyclopentyl)-5-(2-methyl-4-phenoxyphenyl)-4-oxo-4,5-dihydro-3H-1-thia-3,5,8-triazaacenaphthylene-2-carboxamide]", "BTK_I_binding pIC50": 7.00}
{"smiles": "C=CC(=O)N[C@@H]1CCCC[C@H]1NC(=O)c1sc2nccc3c2c1NC(=O)N3c1ccc(Oc2ccccc2)nc1", "note": "[Example 239, N-((1R,2R)-2-Acrylamidocyclohexyl)-4-oxo-5-(6-phenoxypyridin-3-yl)-4,5-dihydro-3H-1-thia-3,5,8-triazaacenaphthylene-2-carboxamide]", "BTK_I_binding pIC50": 6.47}
{"smiles": "Cc1cc(Oc2ccccc2)ccc1N1C(=O)Nc2c(C(=O)N[C@H]3CC[C@H](NC(=O)CN(C)C)C3)sc3nccc1c23", "note": "[Example 245, N-((1S,3S)-3-(2-(Dimethylamino)acetamido)cyclopentyl)-5-(2-methyl-4-phenoxyphenyl)-4-oxo-4,5-dihydro-3H-1-thia-3,5,8-triazaacenaphthylene-2-carboxamide]", "BTK_I_binding pIC50": 6.73}
{"smiles": "CNCC(=O)N[C@H]1CC[C@H](NC(=O)c2sc3nccc4c3c2NC(=O)N4c2ccc(Oc3ccccc3)cc2C)C1", "note": "[Example 246, 5-(2-Methyl-4-phenoxyphenyl)-N-((1S,3S)-3-(2-(methylamino)acetamido)cyclopentyl)-4-oxo-4,5-dihydro-3H-1-thia-3,5,8-triazaacenaphthylene-2-carboxamide]", "BTK_I_binding pIC50": 6.84}
{"smiles": "CN(C)C/C=C/C(=O)N[C@@H]1CC[C@H](NC(=O)c2sc3nccc4c3c2NC(=O)N4c2ccc(Oc3ccccc3)c(Cl)c2)C1", "note": "[Example 248, 5-(3-Chloro-4-phenoxyphenyl)-N-((1S,3R)-3-((E)-4-(dimethylamino)but-2-enamido)cyclopentyl)-4-oxo-4,5-dihydro-3H-1-thia-3,5,8-triazaacenaphthylene-2-carboxamide]", "BTK_I_binding pIC50": 6.98}
{"smiles": "N[C@H]1CCC[C@H]1NC(=O)c1sc2nccc3c2c1NC(=O)N3c1cccc(-c2ccccc2)c1", "note": "[Example 249, 5-([1,1′-Biphenyl]-3-yl)-N-((1R,2S)-2-aminocyclopentyl)-4-oxo-4,5-dihydro-3H-1-thia-3,5,8-triazaacenaphthylene-2-carboxamide]", "BTK_I_binding pIC50": 6.90}
{"smiles": "N[C@H]1CCCC[C@H]1NC(=O)c1sc2nccc3c2c1NC(=O)N3c1ccc(Oc2ccccc2)nc1", "note": "[Example 257, N-((1R,2S)-2-Aminocyclohexyl)-4-oxo-5-(6-phenoxypyridin-3-yl)-4,5-dihydro-3H-1-thia-3,5,8-triazaacenaphthylene-2-carboxamide]", "BTK_I_binding pIC50": 6.47}
